Ends that are not written are not given here.

For assay [1], the target named is T1, human cloned orexin-1 receptor (alanine at position 280) (Homo sapiens, UniProt O43613).
T1 construct: expressed in transfected cells
T1 sequence (O43613 1-425): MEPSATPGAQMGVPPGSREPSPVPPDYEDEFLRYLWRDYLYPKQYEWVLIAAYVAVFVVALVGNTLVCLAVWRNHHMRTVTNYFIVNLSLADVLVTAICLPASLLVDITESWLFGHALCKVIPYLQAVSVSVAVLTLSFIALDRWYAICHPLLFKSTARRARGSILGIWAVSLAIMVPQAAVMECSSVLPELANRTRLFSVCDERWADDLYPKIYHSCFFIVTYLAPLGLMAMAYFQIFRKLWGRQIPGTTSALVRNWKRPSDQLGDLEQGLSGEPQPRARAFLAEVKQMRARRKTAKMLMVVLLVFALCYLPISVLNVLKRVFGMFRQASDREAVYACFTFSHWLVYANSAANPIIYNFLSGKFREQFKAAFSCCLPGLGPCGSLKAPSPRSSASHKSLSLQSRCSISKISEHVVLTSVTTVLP
Nature of the assay: Antagonist affinity at human orexin-1 receptor using FLIPR ([Ca2+]i, CHO cells). Type of assay: cell-based. The following applies: hOrexin A at EC80, IC50 converted to functional pKi by modified Cheng-Prusoff, read-out: fpKi at the human cloned orexin-1 receptor. From the text: Determination of ANTAGONIST AFFINITY at Human Orexin-1 and 2 Receptors Using FLIPR
Adherent Chinese Hamster Ovary (CHO) cells, stably expressing the recombinant human Orexin-1 or human Orexin-2 receptors or Rat Basophilic Leukaemia Cells (RBL) stably expressing recombinant rat Orexin-1 or rat Orexin-2 receptors were maintained in culture in Alpha Minimum Essential Medium (Gibco/Invitrogen, cat. no.; 22571-020), supplemented with 10% decomplemented foetal bovine serum (Life Technologies, cat. no. 10106-078) and 400 μg/mL Geneticin G418 (Calbiochem, cat. no.345810). Cells were grown as monolayers under 95%:5% air:CO2 at 37° C.
The sequences of the human orexin 1, human orexin 2, rat orexin 1 and rat orexin 2 receptors used in this example were as published in Sakurai, T. et al (1998) Cell, 92 pp 573 to 585, with the exception that the human orexin 1 receptor sequence used had the amino acid residue alanine at position 280 and not glycine as reported in Sakurai et al.
Cells were seeded into black clear-bottom 384-well plates (density of 20,000 cells per well) in culture medium as described above and maintained overnight (95%:5% air:CO2 at 37° C.). On the day of the experiment, culture medium were discarded and the cells washed three times with standard buffer (NaCl, 145 mM; KCl, 5 mM; HEPES, 20 mM; Glucose, 5.5 mM; MgCl2, 1 mM; CaCl2, 2 mM) added with Probenecid 2.5 mM. The plates were then incubated at 37° C. for 60 minutes in the dark with 1 μM FLUO-4AM dye to allow cell uptake of the FLUO-4AM, which is subsequently converted by intracellular esterases to FLUO-4, which is unable to leave the cells. After incubation, cells were washed three times with standard buffer to remove extracellular dye and 30 μL of buffer were left in each well after washing.
Compounds of the invention were tested in a final assay concentration range from 1.66×10^−5M to 1.58×10^−11M. Compounds of the invention were dissolved in dimethylsulfoxide (DMSO) at a stock concentration of 10 mM. These stock solutions were serially diluted with DMSO and 1 μL of each dilution was transferred to a 384 well compound plate. Immediately before introducing compound to the cells, buffer solution (50 μl/well) was added to this plate. To allow agonist stimulation of the cells, a stock plate containing a solution of human orexin A (hOrexin A) was diluted with buffer to final concentration just before use. This final concentration of hOrexin A was equivalent to the calculated EC80 for hOrexinA agonist potency in this test system. This value was obtained by testing hOrexinA in concentration response curve (at least 16 replicates) the same day of the experiment.
The loaded cells were then incubated for 10min at 37° C. with test compound. The plates were then placed into a FLIPRTM (Molecular Devices, UK) to monitor cell fluorescence (λex=488 nm, λEM=540 nm) (Sullivan E, Tucker E M, Dale I L. Measurement of [Ca^2+]i, using the fluometric imaging plate reader (FLIPR). In: Lambert D G (ed.), Calcium Signaling Protocols. New Jersey: Humana Press, 1999, 125-136). A baseline fluorescence reading was taken over a 5 to 10 second period, and then 10 μL of EC80 hOrexinA solution was added. The fluorescence was then read over a 4-5 minute period.
Functional responses using FLIPR were measured as peak fluorescence intensity minus basal fluorescence and expressed as a percentage of a non-inhibited Orexin-A-induced response on the same plate. […]

The next assay deals with food intake. The settings on record: central administration, freely-feeding rats, 4 hour time period; cited from earlier work.

On to `COc1ncn2cc(C[C@@H]3CCCCN3C(=O)c3nc(C)sc3-c3ccccc3)nc2c1C` [Example 3, 8-methyl-7-(methyloxy)-2-({(2-S)-1-[(2-methyl-5-phenyl-1,3-thiazol-4-yl)carbonyl]-2-piperidinyl}methyl)imidazo[1,2-c]pyrimidine], for which the Ki in assay [1] is 0.631 to 3.98 nM.
Consider “orexin-A: polypeptide ligand for the orexin-1 receptor, an agonist of the orexin receptors (QPLPDCCRQKTCSCRLYELLHGAGNHAAGILTL; ends and bridges not checked; cysteine pairing not given here; UniProt O43612 34-66, looked up)”, for which the “increase of food intake over control rats receiving vehicle” value in the assay on food intake is “approximately four-fold”.
Turning to `Cc1nc(C(=O)N2CCCC[C@H]2Cc2cn3cnc(C)c(Cl)c3n2)c(-c2ccccc2)s1` [Example 4, 8-chloro-7-methyl-2-({(2S)-1-[(2-methyl-5-phenyl-1,3-thiazol-4-yl)carbonyl]-2-piperidinyl}methyl)imidazo[1,2-c]pyrimidine], the Ki in assay [1] was in the range of 0.631 to 3.98 nM.
Same read-out and setting: the result for `Cc1nc(C(=O)N2CCCC[C@H]2Cc2cn3cnc(Cl)c(C)c3n2)c(-c2ccccc2)s1` [Example 1, 7-chloro-8-methyl-2-({2S)-1-[(2-methyl-5-phenyl-1,3-thiazol-4-ylcarbonyl]-2-piperidinyl}methyl)imidazo[1,2-c]pyrimidine] reads 0.631 to 3.98 nM; that for `Cc1nc(C(=O)N2CCCC[C@H]2Cc2cn3cncc(C)c3n2)c(-c2ccccc2)s1` [Example 2], 0.631 to 3.98 nM; that for `Cc1nc(C(=O)N2CCCC[C@H]2Cc2cn3cnc(C)c(C)c3n2)c(-c2ccccc2)s1` [Example 5, 7,8-dimethyl-2-({(2S)-1-[(2-methyl-5-phenyl-1,3-thiazol-4-yl)carbonyl]-2-piperidinyl}methyl)imidazo[1,2-c]pyrimidine], 0.631 to 3.98 nM.

Values taken from US20100210667A1, “IMIDAZO [1, 2-C] PYRIMIDIN-2-YLMETHYLPIPERIDINES AS OREXIN RECEPTOR ANTAGONISTS” (priority 2007, published 2010).
